These results are taken from patent US8557847B2, “Synergistic modulation of FLT3 kinase using a FLT3 inhibitor and a farnesyl transferase inhibitor” (Janssen Pharmaceutica, N.V., priority 2005, dated 2013).

Counter-ions that a name gives are not always drawn. Like-named read-outs stand apart in the source and are kept apart here.

One may read the IC50 as the concentration at which inhibition is half-maximal.

Data set [1] concerns Baf3-FLT3 cells stimulated with FLT ligand. Nature of the data set: 72-hour cell proliferation assay, single agents and FTI/FLT3 inhibitor combinations, Baf3-FLT3. The data set is classed as cell-based, murine. The settings on record: with single sub-IC50 dose of FLT3 inhibitor Compound A (100 nM). How it is done:
(§1) Dose responses for the individual compounds alone were determined for each cell line using a standard 72-hour cell proliferation assay (see FIGS. 6.1-6.8). The standard chemotherapeutic agent Cytarabine was used as a control cytotoxic agent in all experiments. […] The FLT3 inhibitors, Compounds A, B, C, D, E, F G and H, individually have good potency (sub-micromolar) for the inhibition of FLT3 driven proliferation (compared to the first line cytotoxic agent Cytarabine and Tipifarnib) in cells that depend on FLT3 for growth. Each of these chemically distinct compounds alone has potential for the treatment of disorders related to FLT3, such as FLT3 positive AML. […]
(§2) To statistically evaluate the synergy of a FLT3 inhibitor and an FTI in FLT3 dependent cell lines, dosing combinations were evaluated by the method of Chou and Talalay. See Chou T C, Talalay P. (1984) “Quantitative analysis of dose-effect relationships: the combined effects of multiple drugs or enzyme inhibitors.” Adv Enzyme Regul. […] Using this method, multiple FTI and FLT3 combinations were evaluated. […]
(§3) Cell proliferation assay for MV4-11, Baf3-ITD, Baf3-FLT3 and THP-1 cells. […] Total cell growth is quantified as the difference in luminescent counts (relative light units, RLU) of cell number at Day 0 compared to total cell number at Day 3 (72 hours of growth and/or compound treatment). […]

Data set [2] has as its target T1, isolated kinase domain of the human FLT3 receptor (a.a. 571-993) (Homo sapiens, UniProt P36888).
T1 construct: human FLT3 receptor (a.a. 571-993)
T1 sequence (P36888 571-993): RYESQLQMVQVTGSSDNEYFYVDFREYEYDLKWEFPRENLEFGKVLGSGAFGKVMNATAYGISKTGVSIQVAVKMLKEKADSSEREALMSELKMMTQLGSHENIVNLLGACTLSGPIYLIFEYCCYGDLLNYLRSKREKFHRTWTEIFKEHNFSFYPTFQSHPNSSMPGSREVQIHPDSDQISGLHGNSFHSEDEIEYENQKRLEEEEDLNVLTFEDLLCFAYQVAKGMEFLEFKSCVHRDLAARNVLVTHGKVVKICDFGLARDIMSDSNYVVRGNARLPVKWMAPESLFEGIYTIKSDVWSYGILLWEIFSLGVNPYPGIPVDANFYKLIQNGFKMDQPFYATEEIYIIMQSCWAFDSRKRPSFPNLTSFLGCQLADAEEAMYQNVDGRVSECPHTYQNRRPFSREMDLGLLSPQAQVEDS
The data set is described as follows: FLT3 fluorescence polarization kinase assay. The data set is classed as biochemical. As to conditions: 150 uM ATP; uncertainty ±10%; read-out: Flt-3 IC50. An excerpt: The FLT3 FP assay utilizes the fluorescein-labeled phosphopeptide and the anti-phosphotyrosine antibody included in the Panvera Phospho-Tyrosine Kinase Kit (Green) supplied by Invitrogen. When FLT3 phosphorylates polyGlu4Tyr, the fluorescein-labeled phosphopeptide is displaced from the anti-phosphotyrosine antibody by the phosphorylated poly Glu4Tyr, thus decreasing the FP value. […] The kinase reaction is stopped with the addition of EDTA. The fluorescein-labeled phosphopeptide and the anti-phosphotyrosine antibody are added and incubated for 30 minutes at room temperature.
Data points are an average of triplicate samples. Inhibition and IC50 data analysis was done with GraphPad Prism using a non-linear regression fit with a multiparamater, sigmoidal dose-response (variable slope) equation.
(In general: In fluorescence polarisation assays a small probe gives low polarisation when free and higher when bound to something large.)

Data set [3] concerns the target T2, wild-type FLT3 phosphorylation in Baf3 FLT3 cells (Homo sapiens, UniProt P36888).
T2 construct: host or cells: Baf3 (murine B cell lymphoma line)
T2 sequence (P36888 27-993): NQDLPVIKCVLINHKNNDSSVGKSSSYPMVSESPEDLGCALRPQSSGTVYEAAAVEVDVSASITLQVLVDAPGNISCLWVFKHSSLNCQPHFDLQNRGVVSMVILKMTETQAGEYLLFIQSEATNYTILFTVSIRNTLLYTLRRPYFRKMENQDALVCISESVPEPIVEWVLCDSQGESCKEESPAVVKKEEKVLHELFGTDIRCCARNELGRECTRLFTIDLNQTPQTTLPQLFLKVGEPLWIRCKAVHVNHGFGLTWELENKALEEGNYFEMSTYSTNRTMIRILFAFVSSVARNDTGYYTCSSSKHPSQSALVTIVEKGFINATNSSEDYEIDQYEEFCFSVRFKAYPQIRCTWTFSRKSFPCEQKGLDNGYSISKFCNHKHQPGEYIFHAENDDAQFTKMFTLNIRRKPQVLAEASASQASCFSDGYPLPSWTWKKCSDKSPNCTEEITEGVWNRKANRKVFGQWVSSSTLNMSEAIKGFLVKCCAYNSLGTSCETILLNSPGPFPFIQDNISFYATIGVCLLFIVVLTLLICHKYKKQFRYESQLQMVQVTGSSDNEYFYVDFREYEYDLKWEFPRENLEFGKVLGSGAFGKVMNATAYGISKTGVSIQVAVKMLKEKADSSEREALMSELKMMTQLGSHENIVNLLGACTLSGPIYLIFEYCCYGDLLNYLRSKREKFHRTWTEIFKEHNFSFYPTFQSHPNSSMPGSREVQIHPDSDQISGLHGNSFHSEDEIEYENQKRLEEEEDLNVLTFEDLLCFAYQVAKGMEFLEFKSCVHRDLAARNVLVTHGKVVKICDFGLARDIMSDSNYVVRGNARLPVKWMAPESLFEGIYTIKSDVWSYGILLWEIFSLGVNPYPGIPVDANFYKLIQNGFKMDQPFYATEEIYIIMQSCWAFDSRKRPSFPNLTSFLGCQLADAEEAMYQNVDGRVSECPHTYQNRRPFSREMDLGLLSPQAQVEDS
The data set is described as follows: Cell-based FLT3 receptor ELISA. As to conditions: uncertainty ±20%. The source says:
Data points are an average of triplicate samples. […] Leukemia.

Data set [4] relates to MV4-11 AML cells. The data set is described as follows: 72-hour cell proliferation assay, single agents and FTI/FLT3 inhibitor combinations, MV4-11. It counts as cell-based. As to conditions: Homo sapiens, IC50 of the FLT3 inhibitor, alone or within the labelled combination, average of three experiments. How it is done: as §1, §2, §3
Data set [5] relates to MV4-11 tumor xenografts. The settings on record: for inhibition of mean tumor volume compared to vehicle-treated group: Day 11.
Data set [6] addresses T3, FLT3 phosphorylation in MV4-11 tumors (Homo sapiens, UniProt P36888, INS600HVDFREYEYD).
T3 construct: host or cells: MV4-11 human AML cells (in culture, or as xenograft tumors in nude mice)
T3 sequence (P36888 with tags, fused parts or gaps INS600HVDFREYEYD): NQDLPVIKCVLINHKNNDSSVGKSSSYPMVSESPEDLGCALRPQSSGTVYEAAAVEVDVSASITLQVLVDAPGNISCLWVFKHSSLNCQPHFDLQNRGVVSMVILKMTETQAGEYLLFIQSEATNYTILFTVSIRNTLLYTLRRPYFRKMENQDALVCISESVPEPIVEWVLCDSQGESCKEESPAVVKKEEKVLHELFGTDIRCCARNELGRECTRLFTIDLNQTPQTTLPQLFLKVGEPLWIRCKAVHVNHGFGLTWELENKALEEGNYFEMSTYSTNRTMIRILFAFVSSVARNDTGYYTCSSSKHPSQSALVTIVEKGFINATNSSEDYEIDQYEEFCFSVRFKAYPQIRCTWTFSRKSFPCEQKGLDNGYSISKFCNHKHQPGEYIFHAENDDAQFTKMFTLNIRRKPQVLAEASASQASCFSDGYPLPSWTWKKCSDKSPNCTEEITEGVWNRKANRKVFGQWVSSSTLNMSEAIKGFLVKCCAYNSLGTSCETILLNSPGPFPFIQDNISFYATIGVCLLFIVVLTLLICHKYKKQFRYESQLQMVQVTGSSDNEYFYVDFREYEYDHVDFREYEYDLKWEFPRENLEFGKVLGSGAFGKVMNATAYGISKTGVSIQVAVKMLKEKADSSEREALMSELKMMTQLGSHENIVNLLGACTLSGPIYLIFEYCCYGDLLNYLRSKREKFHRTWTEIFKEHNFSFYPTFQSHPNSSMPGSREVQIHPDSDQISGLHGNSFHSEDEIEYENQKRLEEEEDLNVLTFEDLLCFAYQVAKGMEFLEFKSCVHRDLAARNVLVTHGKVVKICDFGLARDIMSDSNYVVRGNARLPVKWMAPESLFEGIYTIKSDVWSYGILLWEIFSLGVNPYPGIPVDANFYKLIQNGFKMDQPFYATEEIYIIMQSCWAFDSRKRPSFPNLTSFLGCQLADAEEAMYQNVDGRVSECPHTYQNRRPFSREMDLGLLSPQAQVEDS
Nature of the data set: FLT3 phosphorylation in MV4-11 tumors, Compound D. The data set is classed as in vivo, nude mice. As to conditions: tumors harvested 6 hours later. The method, then: Tumors were harvested 6 hours later and snap frozen for assessment of FLT3 phosphorylation by western blots.
Harvested tumors were frozen and processed for immunoblot analysis of FLT3 phosphorylation in the following manner: 200 mg of tumor tissue was dounce homogenized in lysis buffer (50 mM Hepes, 150 mM NaCl, 10% Glycerol, 1% Triton —X-100, 10 mM NaF, 1 mM EDTA, 1.5 mM MgCl2, 10 mM NaPyrophosphate) supplemented with phosphatase (Sigma Cat# P2850) and protease inhibitors (Sigma Cat #P8340). Insoluble debris was removed by centrifugation at 1000×g for 5 minutes at 4° C.
Immunoprecipitated FLT3 from tumor lysates were then washed four times with lysis buffer and separated by SDS-PAGE. […] Blots were then stripped and reprobed with anti-FLT3 antibody for normalization of phosphorylation signals.

The test system of data set [7] is MV-4-11 tumor xenografts. Nature of the data set: MV-4-11 tumor xenografts, FLT3 inhibitor Compound D administered with Tipifarnib. It counts as in vivo, nude mice. As to conditions: Compound D 25 mg/kg bid oral, Day 16.
Excerpt: The starting mean tumor volume for each treatment group was approximately 250 mm3.
Dosing was continued for sixteen consecutive days.

On to `Cn1cncc1[C@@](N)(c1ccc(Cl)cc1)c1ccc2c(c1)c(-c1cccc(Cl)c1)cc(=O)n2C` (single isomer, unassigned) [Tipifarnib, reference compound], for which the “increase in potency of Tipifarnib” value in data set [1] is given as “more than 3 fold”.
`N#Cc1c[nH]c(C(=O)Nc2ccc(C3CCNCC3)cc2C2=CCCCC2)n1` [Compound 14, 4-Cyano-1H-imidazole-2-carboxylic acid (2-cyclohex-1-enyl-4-piperidin-4-yl-phenyl)-amide trifluoroacetic acid salt]: the IC50 in data set [2] was found to be 32 nM; in data set [3], 770 nM.
Consider `CN(C)CC(=O)N1CCC(c2ccc(NC(=O)c3nc(C#N)c[nH]3)c(C3=CCCCC3)c2)CC1` [Compound 38, 4-Cyano-1H-imidazole-2-carboxylic acid {2-cyclohex-1-enyl-4-[1-(2-dimethylamino-acetyl)-piperidin-4-yl]-phenyl}-amide], for which the concentration for half-maximal inhibition (IC50) in data set [4] came to 13.8 nM. In addition, the “tumor growth compared to vehicle-treated control group” value in data set [5] (10 mg/kg b.i.d. oral) is reported as “no significant growth delay”. Further, the final tumor weight entry is reported as “no significant decrease” in data set [5] (10 mg/kg dose) and “no measurable tumor mass detectable” in data set [5] (50 mg/kg dose). The “tumor regression, decrease versus starting mean tumor volume on Day 1” value in data set [5] (50 mg/kg b.i.d. oral) is 98%; in data set [5] (100 mg/kg b.i.d. oral), 93%. Also, the “inhibition of mean tumor volume compared to vehicle-treated group” value in data set [5] (50 mg/kg b.i.d. oral) and in data set [5] (100 mg/kg b.i.d. oral) was about 100% each time. Also, the “mice with palpable, measurable tumor on study day 34” value in data set [5] (100 mg/kg, dosing stopped on Day 12, tumor allowed to re-grow) is reported as 6/12. Further, the “body weight compared to starting body weight” value in data set [5] (across all dose groups) is “no significant loss of body weight”. For the same compound, the “level of FLT3 phosphorylation in MV4-11 tumors” value was “partial reduction” in data set [6] (single dose 10 mg/kg po) and “biologically significant reduction” in data set [6] (single dose 100 mg/kg po). Moreover, the “inhibition of tumor volume compared to vehicle-treated control group” value in data set [7] was determined as 76%.
